In test [1] the target is T1, cytoplasmic domain of the human VEGF receptor (VEGFR-2) (Homo sapiens, UniProt P35968).
T1 construct: The cytoplasmic domain of the human VEGF receptor (VEGFR-2) was expressed as a Histidine-tagged fusion protein; His tag (Histidine-tagged fusion); made in house; host or cells: insect cells (engineered baculovirus)
Description: KDR Assay. It is filed as biochemical. As to conditions: His-VEGFR-2, 3.6 μM ATP, poly-Glu-Tyr (4:1). On the procedure: The cytoplasmic domain of the human VEGF receptor (VEGFR-2) was expressed as a Histidine-tagged fusion protein following infection of insect cells using an engineered baculovirus. His-VEGFR-2 was purified to homogeneity, as determined by SDS-PAGE, using nickel resin chromatography. Kinase assays were performed in 96 well microtiter plates that were coated overnight with 30 μg of poly-Glu-Tyr (4:1) in 10 mM Phosphate Buffered Saline (PBS), pH 7.2-7.4. The plates were incubated with 1% BSA and then washed four times with PBS prior to starting the reaction. Reactions were carried out in 120 μL reaction volumes containing 3.6 μM ATP in kinase buffer (50 mM Hepes buffer pH 7.4, 20 mM MgCl2, 0.1 mM MnCl2 and 0.2 mM Na3VO4). Test compounds were reconstituted in 100% DMSO and added to the reaction to give a final DMSO concentration of 5%. Reactions were initiated by the addition 0.5 ng of purified protein. Following a ten minute incubation at 25° C., the reactions were washed four times with PBS containing 0.05% Tween-20. 100 μl of a monoclonal anti-phosphotyrosine antibody-peroxidase conjugate was diluted 1:10000 in PBS-Tween-20 and added to the wells for 30 minutes. Following four washes with PBS-Tween-20, 100 μl of 0-Phenylenediamine Dihydrochloride in Phosphate-citrate buffer, containing urea hydrogen peroxide, was added to the wells for 7 minutes as a colorimetric substrate for the peroxidase. The reaction was terminated by the addition of 100 μl of 2.5N H2SO4 to each well and read using a microplate ELISA reader set at 492 nm. IC50 values for compound inhibition were calculated directly from graphs of optical density (arbitrary units) versus compound concentration following subtraction of blank values.

The subject of test [2] is VEGF induced increases in intracellular calcium levels in HUVEC (human umbilical vein endothelial cells). Description: VEGF Stimulated Ca++ signal assay (FLIPR). In kind it is cell-based. As to conditions: VEGF 5 ng/mL; for IC50: 0.01 to 10.0 μM. On the procedure: VEGF Stimulated Ca^++ Signal in vitro
Automated FLIPR (Fluorometric Imaging Plate Reader) technology was used to screen for inhibitors of VEGF induced increases in intracellular calcium levels in fluorescent dye loaded endothelial cells. HUVEC (human umbilical vein endothelial cells) (Clonetics) were seeded in 96-well fibronectin coated black-walled plates overnight @ 37° C./5%CO2. Cells were loaded with calcium indicator Fluo-4 for 45 minutes at 37° C. Cells were washed 4 times (Original Cell Wash, Labsystems) to remove extracellular dye. Test compounds were reconstituted in 100% DMSO and added to the cells to give a final DMSO concentration of 0.1%. For screening, cells were pre-incubated with test agents for 30 minutes, at a single concentration (10 μM) or at concentrations ranging from 0.01 to 10.0 μM followed by VEGF stimulation (5 ng/mL). Changes in fluorescence at 516 nm were measured simultaneously in all 96 wells using a cooled CCD camera. Data were generated by determining max-min fluorescence levels for unstimulated, stimulated, and drug treated samples. IC50 values for test compounds were calculated from % inhibition of VEGF stimulated responses in the absence of inhibitor.

Where [3] appears, read: Homo sapiens, 10 μM, 30 min pre-incubation.

The IC50 is the concentration needed to halve the response being measured. The inhibition is the change of the read-out against control, counted positive when it falls.

T1 sequence (P35968 786-1356 limits assumed): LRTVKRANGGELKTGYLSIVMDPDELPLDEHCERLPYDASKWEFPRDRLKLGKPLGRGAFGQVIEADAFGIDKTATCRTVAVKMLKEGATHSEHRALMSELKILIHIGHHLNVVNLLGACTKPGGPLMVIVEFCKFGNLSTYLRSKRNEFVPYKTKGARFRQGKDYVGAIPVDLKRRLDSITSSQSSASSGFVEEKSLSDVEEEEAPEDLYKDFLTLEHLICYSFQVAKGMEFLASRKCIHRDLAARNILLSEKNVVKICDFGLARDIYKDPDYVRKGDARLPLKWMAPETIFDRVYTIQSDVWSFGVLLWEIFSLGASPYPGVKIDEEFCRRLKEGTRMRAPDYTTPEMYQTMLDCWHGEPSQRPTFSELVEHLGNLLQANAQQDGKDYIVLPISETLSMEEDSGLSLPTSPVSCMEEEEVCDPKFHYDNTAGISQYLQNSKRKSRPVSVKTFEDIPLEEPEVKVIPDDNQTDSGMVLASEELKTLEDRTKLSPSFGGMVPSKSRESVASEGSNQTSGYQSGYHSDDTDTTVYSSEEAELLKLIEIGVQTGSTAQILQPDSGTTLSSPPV

Consider `CC(C)(C)c1cc(NC=C2C(=O)Nc3ccccc32)no1` [Example 41, 3-[(5-tert-Butyl-isoxazol-3-ylamino)-methylene]-1,3-dihydro-indol-2-one], for which the figures for the IC50 in test [1] and in test [2] (Homo sapiens) were 780 nM and 10000 nM, respectively. Moreover, in test [2] (setting [3]), the inhibition at 10 µM came out at 96.5%.
With `Cc1oc(C(C)(C)C)cc1-c1cc(NC=C2C(=O)Nc3ccc(F)cc32)[nH]n1` [Example 28, 3-{[5-(5-tert-Butyl-2-methyl-furan-3-yl)-2H-pyrazol-3-ylamino]-methylene}-5-fluoro-1,3-dihydro-indol-2-one], inhibition in test [1] was half-maximal at 15700 nM (IC50). In test [2] (setting [3]), the inhibition at 10 µM came to 43.9%.
Consider `Cc1cc(NC=C2C(=O)Nc3cc(F)ccc32)n[nH]1` [Example 49, 6-Fluoro-3-[(5-methyl-1H-pyrazol-3-ylamino)-methylene]-1,3-dihydro-indol-2-one], for which the midpoint of inhibition in test [1], the IC50, lay at 570 nM.
In the case of `O=C1Nc2ccccc2C1=CNc1n[nH]cc1C(=O)O` [Example 19, 3-[(2-Oxo-1,2-dihydro-indol-3-ylidenemethyl)-amino]-1H-pyrazole-4-carboxylic acid], the inhibition at 10 µM in test [2] (setting [3]) is -0.89%.
Regarding `Cc1ccc(-c2cc(NC=C3C(=O)Nc4ccccc43)[nH]n2)c(C)c1` [Example 34, 3-{[5-(2,4-Dimethyl-phenyl)2H-pyrazol-3-ylamino]-methylene}-1,3-dihydro-indol-2-one], the inhibition at 10 µM in test [2] (setting [3]) was 58.8%. In test [2] (Homo sapiens), the IC50 turned out to be 7640 nM.
Regarding `O=C1Nc2ccc(Cl)cc2C1=CNc1cc(-c2ccccc2)[nH]n1` [Example 14, 5-Chloro-3-[(5-phenyl-1H-pyrazol-3-ylamino)-methylene]-1,3-dihydro-indol-2-one], the inhibition at 10 µM in test [2] (setting [3]) turned out to be 27.4%.
`O=C1Nc2ccccc2C1=CNc1cc(-c2ccco2)[nH]n1` [Example 4, 3-[(5-Furan-2-yl-1H-pyrazol-3-ylamino)-methylene]-1,3-dihydro-indol-2-one]: the half-maximal inhibitory concentration (IC50) in test [1] was 850 nM; in test [2], 700 nM; in test [2] (Homo sapiens) it was not above 1000 nM. The inhibition at 10 µM in test [2] (setting [3]) was determined as 92.6%.
On to `Cc1oc(C(C)(C)C)cc1-c1cc(NC=C2C(=O)Nc3ccccc32)[nH]n1` [Example 29, 3-{[5-(5-tert-Butyl-2-methyl-furan-3-yl)-2H-pyrazol-3-ylamino]-methylene}-1,3-dihydro-indol-2-one], for which the IC50 in test [1] is 260 nM; in test [2], 580 nM; in test [2] (Homo sapiens), not above 1000 nM. Moreover, the inhibition at 10 µM in test [2] (setting [3]) was found to be 99.1%.
Take `CCn1nccc1NC=C1C(=O)Nc2ccccc21` [Example 46, 3-[(2-Ethyl-2H-pyrazol-3-ylamino)-methylene]-1,3-dihydro-indol-2-one]: in test [1], the IC50 turned out to be 11600 nM. The inhibition at 10 µM in test [2] (setting [3]) was 42.4%.
For the compound `Cc1cccc2c1C(=CNc1cc(-c3ccco3)[nH]n1)C(=O)N2` [Example 7, 3-[(5-Furan-2-yl-1H-pyrazol-3-ylamino)-methylene]-4-methyl-1,3-dihydro-indol-2-one], the IC50 is 540 nM in test [1], 920 nM in test [2] and not above 1000 nM in test [2] (Homo sapiens). The inhibition at 10 µM in test [2] (setting [3]) came out at 98.3%.
As to `Cc1cc(NC=C2C(=O)Nc3cc(F)ccc32)no1` [Example 48, 6-Fluoro-3-[(5-methyl-isoxazol-3-ylamino)-methylene]-1,3-dihydro-indol-2-one], the results for the IC50 in test [1] and in test [2] (Homo sapiens) were 1390 nM and 960 nM, respectively.
In the case of `O=C1Nc2ccccc2C1=CNc1cc(Cc2ccccc2)n[nH]1` [Example 40, 3-[(5-Benzyl-2H-pyrazol-3-ylamino)-methylene]-1,3-dihydro-indol-2-one], the inhibition at 10 µM in test [2] (setting [3]) is -0.03%.
For the compound `Cc1cccc2c1C(=CNc1cc(-c3ccccc3)[nH]n1)C(=O)N2` [Example 8, 4-Methyl-3-[(5-phenyl-1H-pyrazol-3-ylamino)-methylene]-1,3-dihydro-indol-2-one], the 50% inhibitory concentration (IC50) in test [1] turned out to be 970 nM; in test [2] (Homo sapiens), 3170 nM. Further, the inhibition at 10 µM in test [2] (setting [3]) is 64.5%.
As to `O=C1Nc2ccccc2C1=CNc1cc(-c2cc(OCc3ccccc3)cc(OCc3ccccc3)c2)n[nH]1` [Example 31, 3-{[5-(3,5-Bis-benzyloxy-phenyl)-2H-pyrazol-3-ylamino]-methylene}-1,3-dihydro-indol-2-one], the inhibition at 10 µM in test [2] (setting [3]) was -12.9%.
On to `COc1ccc(-c2c(C)n[nH]c2NC=C2C(=O)Nc3ccccc32)cc1OC` [Example 16, 3-{[4-(3,4-Dimethoxy-phenyl)-5-methyl-2H-pyrazol-3-ylamino]-methylene}-1,3-dihydro-indol-2-one], for which the inhibition at 10 µM in test [2] (setting [3]) was -1.47%.
Turning to `COc1ccc(-c2cc(NC=C3C(=O)Nc4ccccc43)[nH]n2)cc1` [Example 30, 3-{[5-(4-Methoxy-phenyl)2H-pyrazol-3-ylamino]-methylene}-1,3-dihydro-indol-2-one], the inhibition at 10 µM in test [2] (setting [3]) came out at 12.3%.
Turning to `O=C1Nc2ccccc2C1=CNc1n[nH]cc1Br` [Example 21, 3-[(4-Bromo-1H-pyrazol-3-ylamino)-methylene]-1,3-dihydro-indol-2-one], the inhibition at 10 µM in test [2] (setting [3]) amounted to 32.1%.
For `O=C1Nc2ccc(Cl)cc2C1=CNc1n[nH]c(-c2ccccc2)c1Br` [Example 13, 3-[(4-Bromo-5-phenyl-1H-pyrazol-3-ylamino)-methylene]-5chloro-1,3-dihydro-indol-2-one], the inhibition at 10 µM in test [2] (setting [3]) is -19.1%.
For “3-[(1-H-Pyrazol-3 ylamino)methylene]-1,3-dihydro-indol-2-one [Example 1]”, the “VEGF Stimulated Ca++ signal assay % inhibition @10 μM” value in test [2] (10 μM, 30 min pre-incubation) was 92.8%. The IC50 in test [2] was 3000 nM.
As to `COC(=O)c1ccc(-c2cc(NC=C3C(=O)Nc4ccccc43)n[nH]2)cc1` [Example 24, 4-{5-[(2-Oxo-1,2-dihydro-indol-3-ylidenemethyl)-amino]-2H-pyrazol-3-}-benzoic acid methyl ester], in test [2] (setting [3]), the inhibition at 10 µM was found to be 56.9%. Moreover, in test [2] (Homo sapiens), the IC50 was not below 10000 nM.
As to `Cc1cc(C)c2c(NC=C3C(=O)Nc4ccccc43)n[nH]c2n1` [Example 25, 3-[(4,6-Dimethyl-1H-pyrazolo[3,4-b]pyridin-3-ylamino)-methylene]-1,3-dihydro-indol-2-one], the inhibition at 10 µM in test [2] (setting [3]) came to 15.1%.
The same measure, in the same setting: as for `Cc1cccc2c1C(=CNc1n[nH]c(-c3ccccc3)c1Br)C(=O)N2` [Example 12, 3-[(4-Bromo-5-phenyl-1H-pyrazol-3-ylamino)-methylene]-4-methyl-1,3-dihydro-indol-2-one], the figure is -12.9%; as for `CCOC(=O)c1c[nH]nc1NC=C1C(=O)Nc2ccccc21` [Example 17, 3-[(2-Oxo-1,2-dihydro-indol-3-ylidenemethyl)-amino]-1H-pyrazole-4-carboxylic acid ethyl ester], 27.2%.
The same measure, in the same setting: under `Cc1cccc(Cc2cc(NC=C3C(=O)Nc4ccccc43)[nH]n2)c1` [Example 39, 3-{[5-(3-Methyl-benzyl)-2H-pyrazol-3-ylamino]-methylene}-1,3-dihydro-indol-2-one] stands -12.6%.
As to `CSc1[nH]nc(NC=C2C(=O)Nc3ccccc32)c1C#N` [Example 18, 5-Methylsulfanyl-3-[(2-oxo-1,2-dihydro-indol-3-ylidenemethyl)-amino]-1H-pyrazole-4-carbonitrile], the inhibition at 10 µM in test [2] (setting [3]) worked out at 14.1%.
Regarding `O=C1Nc2ccccc2C1=CNc1n[nH]c2cccc(F)c12` [Example 15, 3-[(4-Fluoro-1H-indazol-3-ylamino)-methylene]-1,3-dihydro-indol-2-one], the inhibition at 10 µM in test [2] (setting [3]) was found to be 6.16%.
As for `N#Cc1c[nH]nc1NC=C1C(=O)Nc2ccccc21` [Example 20, 3-[(2-Oxo-1,2-dihydro-indol-3-ylidenemethyl)-amino]-1H-pyrazole-4-carbonitrile], the inhibition at 10 µM in test [2] (setting [3]) worked out at 35.8%.
In the case of `O=C1Nc2ccccc2C1=CNc1n[nH]c(-c2ccccc2)c1Br` [Example 11, 3-[(4-Bromo-5-phenyl-1H-pyrazol-3-ylamino)-methylene]-1,3-dihydro-indol-2-one], in test [2] (setting [3]), the inhibition at 10 µM turned out to be 23.4%.

For the origin of these results see patent US6559173B1, “3-(heteroarylamino)methylene-1,3-dihydro-2H-indol-2-ones as kinase inhibitors” (Allergan, Inc., priority 2001, dated 2003).
